Patent US7105534B2, “Imidazo[1,2-α]pyridine ether compounds as ion channel modulators” (Cardiome Pharma Corp., priority 2000, dated 2006)

Experiments:
[1] = tested on: Sprague Dawley rats; experiment: Cardiovascular and behavioral effects: ECG changes during i.v. infusion in conscious rats; assay type: in vivo, rat
Procedure: Preparative surgery is performed in Sprague Dawley rats weighing 200–300 gm and anaesthetized with 65 mg/kg (i.p.) pentobarbital. The femoral artery and vein are cannulated using polyethylene (PE)-10 tubing. Prior to surgery, this PE-10 tubing had been annealed to a wider gauge (PE-50) tubing for externalization. The cannulated PE-10/PE-50 tubing is passed through a trocar and exteriorised together with three (lead II) limb ECG leads (see below). The trocar is threaded under the skin of the back and out through a small incision at the mid-scapular region. A ground ECG electrode is inserted subcutaneously using a 20 gauge needle with the lead wire threaded through it. To place the other ECG electrodes, a small incision is made in the anterior chest region over the heart and ECG leads are inserted into the subcutaneous muscle layer in the region of the heart using a 20 guage needle. Other ECG leads are inserted into the subcutaneous muscle layer in the region near the base of the neck and shoulder (right side). The animal is returned to a clean recovery-cage with free access to food and water. The treatment and observational period for each animal commenced after a 24-hour recovery period.
A 15 min observational period is recorded followed by the intravenous infusion regime of the test compound at an initial dose of 2.0 μmol/kg/min (at 1 ml/hr). This rate is doubled every 5 minutes until one of the following effects is observed:
Blood pressure (BP), heart rate (HR) and ECG variables are continuously recorded while behavioral responses are also monitored and the total accumulative drug dose and drug infusion rate at which the response (such as convulsion, piloerection, ataxia, restlessness, compulsive chewing, lip-smacking, wet dog shake etc.) occurred are recorded.
Electrocardiograph (ECG) parameters: PR, QRS, QT1 (peak of T-wave), QT2 (midpoint of T-wave deflection) and hemodynamic parameters: BP and HR are analyzed using the automated analysis function in LabView (National Instruments) with a customized autoanalysis software (Nortran Pharmaceuticals). The infused dose producing 25% from control (D25) for all recorded ECG variables is determined.
Table 2 describes the results of the tests as D25 (micromol/kg) which are the doses required to produce a 25% increase in the ECG parameter measured (ne=not estimated). The increases in P-R interval and QRS interval indicate cardiac sodium channel blockade while the increase in Q-T interval indicates cardiac potassium channel blockade.

[2] = target: T1, hH1 Na+ current (Homo sapiens, UniProt Q14524); experiment: Patch-clamp inhibition of cloned ion channel current in transfected HEK cells: Na; assay type: cell-based; details: peak hH1 Na+ current, -100 mV to -30 mV
T1 construct: expressed in transfected cells; host or cells: HEK cells, transient transfection, vector pCDNA3
T1 sequence (Q14524 whole entry): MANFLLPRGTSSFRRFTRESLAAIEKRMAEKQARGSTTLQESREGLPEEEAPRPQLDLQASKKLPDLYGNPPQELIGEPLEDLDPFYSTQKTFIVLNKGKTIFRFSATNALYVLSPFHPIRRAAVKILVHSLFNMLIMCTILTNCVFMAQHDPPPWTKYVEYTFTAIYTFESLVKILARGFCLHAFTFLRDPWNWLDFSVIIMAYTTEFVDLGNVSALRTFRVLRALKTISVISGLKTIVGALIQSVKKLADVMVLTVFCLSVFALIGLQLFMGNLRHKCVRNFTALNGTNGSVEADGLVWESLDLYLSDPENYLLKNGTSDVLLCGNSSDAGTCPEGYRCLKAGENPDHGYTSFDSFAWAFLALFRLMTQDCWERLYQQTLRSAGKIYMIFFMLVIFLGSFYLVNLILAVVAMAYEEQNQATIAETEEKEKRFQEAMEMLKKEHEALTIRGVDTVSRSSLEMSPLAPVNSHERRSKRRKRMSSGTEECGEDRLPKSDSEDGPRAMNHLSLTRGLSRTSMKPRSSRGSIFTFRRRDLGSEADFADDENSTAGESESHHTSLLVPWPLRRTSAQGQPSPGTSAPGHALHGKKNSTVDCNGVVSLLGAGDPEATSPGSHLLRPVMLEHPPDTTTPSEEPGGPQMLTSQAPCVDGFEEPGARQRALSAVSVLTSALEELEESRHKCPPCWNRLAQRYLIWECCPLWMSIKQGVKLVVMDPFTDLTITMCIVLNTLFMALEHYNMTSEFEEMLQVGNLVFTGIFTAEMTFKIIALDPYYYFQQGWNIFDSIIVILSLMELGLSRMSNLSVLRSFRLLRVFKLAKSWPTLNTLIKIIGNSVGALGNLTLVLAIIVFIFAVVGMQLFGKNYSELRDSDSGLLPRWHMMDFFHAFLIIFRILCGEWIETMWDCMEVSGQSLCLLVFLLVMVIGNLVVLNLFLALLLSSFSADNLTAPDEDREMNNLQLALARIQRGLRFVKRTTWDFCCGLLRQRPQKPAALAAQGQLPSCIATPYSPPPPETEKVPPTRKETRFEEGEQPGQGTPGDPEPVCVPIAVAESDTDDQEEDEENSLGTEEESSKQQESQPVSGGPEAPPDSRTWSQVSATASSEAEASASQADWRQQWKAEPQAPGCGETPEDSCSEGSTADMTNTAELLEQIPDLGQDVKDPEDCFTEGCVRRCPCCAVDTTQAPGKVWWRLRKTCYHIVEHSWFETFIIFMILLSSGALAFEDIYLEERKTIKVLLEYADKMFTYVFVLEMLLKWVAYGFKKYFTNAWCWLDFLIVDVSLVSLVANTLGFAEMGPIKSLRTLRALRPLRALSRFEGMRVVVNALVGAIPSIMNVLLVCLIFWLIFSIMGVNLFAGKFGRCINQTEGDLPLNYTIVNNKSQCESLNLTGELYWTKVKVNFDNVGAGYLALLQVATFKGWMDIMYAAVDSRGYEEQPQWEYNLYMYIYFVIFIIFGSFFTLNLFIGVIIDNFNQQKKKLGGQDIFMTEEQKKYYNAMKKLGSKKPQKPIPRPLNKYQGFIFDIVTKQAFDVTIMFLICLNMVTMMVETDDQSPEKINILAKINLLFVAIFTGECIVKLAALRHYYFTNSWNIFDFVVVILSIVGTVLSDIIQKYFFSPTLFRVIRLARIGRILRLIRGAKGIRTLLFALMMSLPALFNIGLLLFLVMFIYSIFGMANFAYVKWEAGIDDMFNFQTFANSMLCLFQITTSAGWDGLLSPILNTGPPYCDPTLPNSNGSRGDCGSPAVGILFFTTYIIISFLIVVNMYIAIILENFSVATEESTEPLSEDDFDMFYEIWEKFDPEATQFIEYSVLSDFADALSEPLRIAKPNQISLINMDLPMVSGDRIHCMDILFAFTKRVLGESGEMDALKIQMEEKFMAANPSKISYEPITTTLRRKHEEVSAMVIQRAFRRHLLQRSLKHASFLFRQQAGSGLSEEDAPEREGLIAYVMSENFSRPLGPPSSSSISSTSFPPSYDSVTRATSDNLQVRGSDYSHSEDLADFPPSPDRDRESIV
Procedure: The relevant cloned ion channels (e.g. cardiac hH1, Kv1.4, Kv1.5, Kv4.2, Kv2.1, HERG etc.) are studied by transient transfection into HEK cells using the mammalian expression vector pCDNA3. Transfections for each channel type are carried out separately to allow individual study of the ion channel of interest. Cells expressing channel protein are detected by cotransfecting cells with the vector pHook-1 (Invitrogen, San Diego, Calif., USA). […] Equal concentrations of individual channel and pHook DNA are incubated with 10× concentration of lipofectAce in Modified Eagle's Medium (MEM, Canadian Life Technologies) and incubated with parent HEK cells plated on 25 mm culture dishes. After 3–4 hours the solution is replaced with a standard culture medium plus 20% fetal bovine serum and 1% antimycotic. Transfected cells are maintained at 37C in an air/5% CO2 incubator in 25 mm Petri dishes plated on glass coverslips for 24–48 hours to allow channel expression to occur. 20 min prior to experiments, cells are treated with beads coated with phOX. After 15 min, excess beads are […] off with cell culture medium and cells which had beads stuck to them are used for electrophysiological tests.
For whole-cell recording the control pipette filling solution contained (in mM): KCl, 130; EGTA, 5; MgCl2, 1; HEPES, 10; Na2ATP, 4; GTP, 0.1; and is adjusted to pH 7.2 with KOH. The control bath solution contained (in mM): NaCl, 135; KCI, 5; sodium acetate, 2.8; MgCl2, 1; HEPES, 10; CaCl2, 1; and is adjusted to pH 7.4 with NaOH. The test ion channel modulating compound is dissolved to 10 mM stock solutions in water and used at concentrations between 0.5 and 100 μM.
Coverslips containing cells are removed from the incubator before experiments and placed in a superfusion chamber (volume 250 μl) containing the control bath solution at 22C to 23C. All recordings are made via the variations of the patch-clamp technique, using an Axopatch 200A amplifier (Axon Instruments, CA). Patch electrodes are pulled from thin-walled borosilicate glass (World Precision Instruments; FL) on a horizontal micropipette puller, fire-polished, and filled with appropriate solutions. Electrodes had resistances of […] when filled with control filling solution. Analog capacity compensation is used in all whole cell measurements. In some experiments, leak subtraction is applied to data. Membrane potentials have not been corrected for any junctional potentials that arose between the pipette and bath solution. Data are filtered at 5 to 10 kHz before digitization and stored on a microcomputer for later analysis using the pClamp6 software (Axon Instruments, Foster City, Calif.). Due to the high level of expression of channel cDNA's in HEK cells, there is no need for signal averaging. The average cell capacitance is quite small, and the absence of ionic current at negative membrane potentials allowed faithful leak subtraction of data.
The concentration-response curves for changes in peak and steady-state current produced by the test compound are computer-fitted to the Hill equation: f=1−1/[1+([…])^n] [1]
where f is the fractional current (f=Idrug/Icontrol) at drug concentration [D]; IC50 is the concentration producing half-maximal inhibition and n is the Hill coefficient.
Compounds of the present invention may be evaluated by this method. […] Block is determined from the decrease in peak hH1 Na^+ current, or in steady-state Kv1.5 and integrated Kv4.2 current in the presence of drug. To record Na^+ current, cells are depolarized from the holding potential of −100 mV to a voltage of −30 mV for 10 ms to fully open and inactivate the channel. To record Kv1.5 and Kv4.2 current, cells are depolarized from the holding potential of −80 mV to a voltage of +60 mV for 200 ms to fully open the channel. Currents are recorded in the steady-state at a range of drug concentrations during stimulation every 4 s. […]

[3] = target: T2, HERG (Homo sapiens, UniProt Q12809); experiment: Patch-clamp inhibition of cloned ion channel current in transfected HEK cells: HERG; assay type: cell-based; details: whole-cell patch clamp
T2 construct: expressed in transfected cells; host or cells: HEK cells, transient transfection, vector pCDNA3
T2 sequence (Q12809 whole entry): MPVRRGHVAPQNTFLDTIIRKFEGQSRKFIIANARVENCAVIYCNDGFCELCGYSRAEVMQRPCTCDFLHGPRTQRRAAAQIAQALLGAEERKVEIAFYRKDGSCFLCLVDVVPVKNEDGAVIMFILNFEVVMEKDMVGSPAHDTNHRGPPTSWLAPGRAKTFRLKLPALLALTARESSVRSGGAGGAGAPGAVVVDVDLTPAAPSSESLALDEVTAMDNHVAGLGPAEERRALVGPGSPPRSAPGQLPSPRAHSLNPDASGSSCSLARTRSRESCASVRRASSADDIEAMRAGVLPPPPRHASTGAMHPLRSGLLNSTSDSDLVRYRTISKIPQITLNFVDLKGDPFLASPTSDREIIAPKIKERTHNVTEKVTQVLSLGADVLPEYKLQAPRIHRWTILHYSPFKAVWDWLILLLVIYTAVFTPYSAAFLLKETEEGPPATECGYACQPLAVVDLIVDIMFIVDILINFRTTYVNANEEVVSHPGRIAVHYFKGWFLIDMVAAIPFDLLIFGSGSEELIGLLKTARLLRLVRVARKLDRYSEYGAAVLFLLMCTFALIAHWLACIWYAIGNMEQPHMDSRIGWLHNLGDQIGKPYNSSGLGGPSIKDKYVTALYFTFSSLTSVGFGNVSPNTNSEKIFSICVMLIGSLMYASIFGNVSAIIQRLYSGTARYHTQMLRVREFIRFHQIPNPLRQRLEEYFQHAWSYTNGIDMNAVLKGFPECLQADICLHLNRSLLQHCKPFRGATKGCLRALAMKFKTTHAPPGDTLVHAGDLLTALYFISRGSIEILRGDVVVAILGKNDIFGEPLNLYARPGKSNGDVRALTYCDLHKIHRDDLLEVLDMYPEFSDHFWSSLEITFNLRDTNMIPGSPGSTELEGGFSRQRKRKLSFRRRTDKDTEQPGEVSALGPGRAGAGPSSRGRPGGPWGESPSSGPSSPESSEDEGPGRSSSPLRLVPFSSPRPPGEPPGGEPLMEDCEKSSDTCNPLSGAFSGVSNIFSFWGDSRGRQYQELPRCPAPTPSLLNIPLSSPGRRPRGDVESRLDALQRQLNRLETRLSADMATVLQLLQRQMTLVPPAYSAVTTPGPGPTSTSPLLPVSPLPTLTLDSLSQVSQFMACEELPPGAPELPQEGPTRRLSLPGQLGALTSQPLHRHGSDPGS
Summary of the method: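 HERG channels were expressed by transient lipofection of HEK cells with pCDNA3 plus the pHook-1 marker, and bead-tagged cells were selected after 24–48 hours. Whole-cell currents were recorded at 22C to 23C with an Axopatch 200A in KCl pipette and NaCl bath solutions. Compound was applied at 0.5 to 100 μM, and IC50 came from Hill equation fits.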

IC50 [2]: 94 µM
SMILES: COc1ccc(CCCOc2cccn3cc(C)nc23)cc1OC [Compound 3, 8-[3-(3,4-DIMETHOXYPHENYL)PROPOXY]-2-METHYLIMIDAZO[1,2-α]PYRIDINE MONOHYDROCHLORDE]
D25 QT (dose required to produce a 25% increase in Q-T interval) ([1]; indicates cardiac potassium channel blockade): 16 µmol/kg
D25 PR (dose required to produce a 25% increase in P-R interval) ([1]; indicates cardiac sodium channel blockade): 21 µmol/kg
IC50 [3]: 0.6 µM
